The text below walks through data of the Deep4Chem optical property database.

A short description of the data set: solvent given as SMILES.

SMILES strings stand for the structures. Values joined by “and” are separate entries in the source; they are usually repeats but may differ in a detail not shown here. Equal entries are not always repeated.

Where the note is “in ClC(Cl)Cl”, `Cc1c2c(c(C)c3ccccc13)-c1c-2ccc2nc3ccccc3nc12` returned an absorption maximum of 455 nm.
Consider `CCOC(=O)c1ccc2nc(N)sc2c1`, for which the absorption maximum amounted to 293 nm (in CC#N) and 293 nm (in ClCCl).
Regarding `C=CCOc1ccc(-c2nc3cc(C(NC(=O)OC(C)(C)C)C(=O)OC)ccc3o2)cc1` (centres undefined), the absorption maximum (in CC1CCCCC1) amounted to 324 nm, the absorption maximum (in CC#N) is 309 nm and the absorption maximum (in CO) is listed as 309 nm.
Regarding `c1ccc(-c2cc3c(oc4ccccc43)c(-c3ccccc3)[o+]2)cc1`, the absorption maximum is 385 nm (in CC#N) and 395 nm (in ClCCCl).
`NS(=O)(=O)c1ccc(N2N=C(c3ccc(O)cc3)CC2c2ccccc2)cc1` (centres undefined) had an absorption maximum (in C1CCOC1) of 359 nm; an absorption maximum (in C1COCCO1) of 359 nm; an absorption maximum (in CC#N) of 358 nm; an absorption maximum (in CC(C)O) of 357 nm; an absorption maximum (in CCO) of 357 nm; an absorption maximum (in CCOC(C)=O) of 357 nm. The absorption maximum is on record as 361 nm (in CN(C)C=O), 357 nm (in CO), 364 nm (in CS(C)=O) and 359 nm (in O).
Consider `CCOC(=O)c1cc(C(=O)OCC)c2cc([N+](=O)[O-])ccc2n1`, for which, for the setting “in CCO”, the absorption maximum is given as 304 nm.
`C(=C\c1ccnc(/C=C/c2ccc(N(c3ccccc3)c3ccccc3)cc2)n1)/c1ccc(N(c2ccccc2)c2ccccc2)cc1` returned an absorption maximum (in ClCCl) of 402 nm.
Turning to `CCC1=C(C)C(=O)n2c1cc1c(C)c(CCC(=O)O)c(C)n1c2=O`, the absorption maximum by setting is: (in CC#N) 408 nm; (in CC(C)=O) 413 nm; (in CO) 425 nm; (in CS(C)=O) 426 nm; (in ClC(Cl)Cl) 428 nm; (in c1ccccc1) 421 nm.
Regarding `c1ccc2c(c1)Sc1ccccc1N2c1ccc2c(c1)C1(CC1)c1cc(N3c4ccccc4Sc4ccccc43)ccc1-2`, the absorption maximum (in Cc1ccccc1) stood at 307 nm.
Take `Cc1ccc(C(=O)OCc2c(C)c(=O)n3c(=O)c(C)c(C)n23)cc1`: the absorption maximum (in CCO) is recorded as 376 nm.
In the case of `C(=C\c1nc2ccccc2o1)/c1ccccc1`, the absorption maximum by setting is: (in C1CCCCC1) 320 nm; (in CO) 320 nm.
`CC1=CC(C)=[N+]2C1=C(c1ccc(I)cc1)c1c(C)cc(C)n1[B-]2(OC(C)C)OC(C)C`: the absorption maximum (in ClC(Cl)Cl) was 504 nm.
In the case of `CCCCCCCCCCCCC(CCCCCCCCCC)Cn1c2cc(/C=C/c3nc4ccccc4s3)c3cccc4c5cccc6c(/C=C/c7nc8ccccc8s7)cc1c(c65)c2c34` (centres undefined), the absorption maximum reads like this: (in C1CCCCC1) 517 nm; (in CC#N) 516 nm; (in Cc1ccccc1) 524 nm; (in ClCCl) 521 nm.
Regarding `COc1ccc2c3c(c4ccc(OC)cc4c2c1)C(C)(C)c1ccccc1-3`, the absorption maximum (in C1CCCCC1) was determined as 388 nm.
For `c1ccc(N2c3ccc4ccccc4c3-c3c4ccccc4cc[n+]3[B-]2(c2ccccc2)c2ccccc2)cc1`, the absorption maximum (in Cc1ccccc1) is given as 511 nm.
Turning to `CN(C)c1ccc(/C=C2/N=C(c3ccccc3)OC2=O)cc1`, the absorption maximum runs as follows: (in C1CCCCC1) 456 nm; (in C1COCCO1) 466 nm; (in CC#N) 473 nm; (in CC(C)=O) 470 nm; (in CC(C)O) 470 nm; (in CCCCCC) 443 nm. Further, the absorption maximum amounted to 470 nm (in CCCCCO); 472 nm (in CCCCO); 470 nm (in CCO); 482 nm (in CN(C)C=O); 473 nm (in CO); 466 nm (in ClC(Cl)(Cl)Cl). The absorption maximum reads like this: (in ClC(Cl)Cl) 472 nm; (in ClCCl) 472 nm.
As for `C1=CC2=Nc3cccc[n+]3CN2C=C1`, the absorption maximum (in CO) came out at 412 nm.
The compound `CCCCN1c2ccccc2Sc2cc(/C=C\c3cc(=O)oc4cc(C)ccc34)ccc21` had an absorption maximum (in ClC(Cl)Cl) of 424 nm.
In the case of `COc1cc(/C=C/c2nc3ccccc3s2)c(OC)cc1/C=C/c1ccncc1`, the absorption maximum is on record as 415 nm (in C1CCOC1), 410 nm (in CC#N), 416 nm (in CN(C)C=O) and 416 nm (in Cc1ccccc1).
In the case of `CCCCOc1c(-c2ccc(N(c3ccccc3)c3ccccc3)cc2)cc2cc(-c3ccc(N(c4ccccc4)c4ccccc4)cc3)c(OCCCC)c3c4c(OCCCC)c(-c5ccc(N(c6ccccc6)c6ccccc6)cc5)cc5cc(-c6ccc(N(c7ccccc7)c7ccccc7)cc6)c(OCCCC)c(c1c23)c54`, for the setting “in ClCCl”, the absorption maximum is given as 422 nm.
As to `COc1ccc(-c2cc3c(ccc4sc5ccc6sc(-c7ccc(C(C)=O)cc7)cc6c5c43)s2)cc1`, for the setting “in ClCCl”, the absorption maximum amounted to 380 nm.
For `CCOC(=O)c1sc2nc(C)c(CC)c(C#N)c2c1N`, the absorption maximum (in c1ccccc1) was determined as 412 nm.
Compound `CCCCCCOc1cc(/C=C/c2cc(OCCCCCC)c(/C=C/c3cc(OCCCCCC)c(C=C4C(=C(C#N)C#N)c5ccccc5C4=C(C#N)C#N)cc3OCCCCCC)cc2OCCCCCC)c(OCCCCCC)cc1C=C1C(=C(C#N)C#N)c2ccccc2C1=C(C#N)C#N` had an absorption maximum (in ClCCl) of 640 nm.
In the case of `CC1(C)c2ccccc2N(c2ccc3c(c2)C2(c4cc(N5c6ccccc6C(C)(C)c6ccccc65)ccc4-3)c3ccccc3S(=O)(=O)c3ccccc32)c2ccccc21`, where the note is “in Cc1ccccc1”, the absorption maximum worked out at 364 nm.
Take `CC(C)(C)c1ccc2c(c1)sc1[n+]2[B-](F)(F)n2c(c3cccc4c(Br)ccc2c43)=C1C#N`: the absorption maximum by setting is: (in C1CCOC1) 539 nm; (in CC#N) 532 nm; (in CCCCCC) 542 nm; (in Cc1ccccc1) 543 nm; (in ClCCl) 538 nm.
In the case of `COC(=O)C(NC(=O)OC(C)(C)C)c1ccc2oc(-c3cc(OC)c(OC)cc3OC)nc2c1` (centres undefined), the absorption maximum by setting is: (in CC1CCCCC1) 327 nm; (in CC#N) 333 nm; (in CO) 335 nm.
In the case of `CCc1ccc(C2=[N+]3C(=Cc4c5ccc(OC)cc5c(-c5ccc(CC)s5)n4[B-]3(F)F)c3ccc(OC)cc32)s1`, for the setting “in ClCCl”, the absorption maximum is 727 nm.
For `CN(C)c1ccc(C(=O)Nc2ccccc2)cc1`, the absorption maximum by setting is: (in C1CCCCC1) 307 nm; (in C1CCOC1) 311 nm; (in CC#N) 314 nm; (in CCOCC) 307 nm.
Consider `CN(C)c1ccc(/C=C/c2cc3ccccc3c[n+]2C)cc1`, for which the absorption maximum was determined as 425 nm (in CC(C)=O) and 441 nm (in ClCCl).
For the compound `CCOC(=O)CCCCCn1c2ccccc2c(=O)c2cc3c(cc21)c(=O)c1ccccc1n3CC`, the absorption maximum (in CO) is on record as 528 nm.
With `CCN(CC)c1ccc(-c2nc3c4ccccc4n(C)c3nc2-c2ccc(B(c3c(C)cc(C)cc3C)c3c(C)cc(C)cc3C)cc2)cc1`, the absorption maximum (in C1CCOC1) is recorded as 416 nm.
In the case of `CCCCN1/C(=C/C=C/C2=[N+](C)c3ccccc3C2(C)C)C(C)(C)c2cc(Br)ccc21`, the absorption maximum (in CS(C)=O) worked out at 556 nm.
For `CC1CCC(=CS/C=C/c2ccc(/C=C/SC=C3CCC(C)CC3)cc2)CC1` (centres undefined), the absorption maximum (in ClCCl) came to 350 nm.
The same measure, in the same setting: under `c1ccc([B-]23Oc4ccccc4-c4c5[n+]6c(c([n+]42)-c2ccccc2O3)-c2ccccc2O[B-]6(c2ccccc2)Oc2ccccc2-5)cc1` stands 574 nm; under `C[Si]1(C)c2cc(C#Cc3ccccc3)ccc2C=Cc2ccc(C#Cc3ccccc3)cc21`, 403 nm.
For the setting “in ClC(Cl)Cl”, `Ic1ccc(C2=C3C=CC4=[N+]3[B-]3(Oc5ccccc54)Oc4ccccc4-c4ccc2n43)cc1` (centres undefined) had an absorption maximum of 630 nm.
Consider `CCN(CC)c1ccc(-c2ccc(-c3nc4ccccc4c(=O)[nH]3)s2)cc1`, for which the absorption maximum (in CC#N) came to 404 nm and the absorption maximum (in Cc1ccccc1) is reported as 410 nm.
For `COc1ccc(-c2cc3c(o2)=CC2=Cc4cc5oc(-c6ccc(OC)cc6)cc5n4[B-](F)(F)[N+]=32)cc1`, the absorption maximum (in ClC(Cl)Cl) is 673 nm and 672 nm.
Compound `COC(=O)c1[nH]c(-c2ccccc2)c2nnc3ccc(OC)cc3c12` returned an absorption maximum (in ClCCl) of 392 nm.
For the setting “in C1CCCCC1”, `COc1ccc(C2=C(c3ccc(OC)cc3)C(C)(C)c3ccc4ccccc4c32)cc1` had an absorption maximum of 336 nm.
`COc1cc(/C=C/c2nc(N3CCOCC3)c3c([n+]2[O-])CCCC3)cc(OC)c1OC` had an absorption maximum (in ClCCl) of 390 nm.
On to `CCCCOC(=O)c1cc(Oc2ccc(OC)cc2)c2c3c(Cl)cc4c5c(cc(Cl)c(c6c(Oc7ccc(OC)cc7)cc(C(=O)OCCCC)c1c26)c53)C(=O)N(c1c(C(C)C)cccc1C(C)C)C4=O`, for which the absorption maximum (in Cc1ccccc1) is reported as 531 nm.
For the compound `Cn1c2nc(=O)[nH]c(=O)c-2nc2ccccc21`, the absorption maximum (in CC1CCCO1) came out at 459 nm.
Take `CC1(C)c2ccccc2N(c2ccc(-c3ccc(C#N)cn3)cc2)c2ccccc21`: the absorption maximum (in Cc1ccccc1) is recorded as 384 nm.
With `COc1ccc(/C=C/C2=C3CCc4ccccc4C3=[O+][B-](F)(F)O2)cc1`, where the note is “in ClCCl”, the absorption maximum stood at 467 nm.
`Cc1cc2ccccc2c2c1c1ccccc1n2-c1ccccc1` returned an absorption maximum (in ClCCl) of 303 nm.
For the setting “in O”, `CC[N+]1(CC)CN2C(=N1)C(C(=O)O)=Cc1c2ccc2ccccc12` came in with an absorption maximum of 406 nm.
Regarding `CCOc1ccc2c(-c3nc(-c4ccccc4Cl)no3)cc(=O)oc2c1`, the absorption maximum is reported as 393 nm (in CCO) and 394 nm (in ClC(Cl)Cl).
Consider `O=c1c2cc(-n3c4ccccc4c4ccccc43)ccc2sc2ccc(-n3c4ccccc4c4ccccc43)cc12`, for which the absorption maximum worked out at 408 nm (in C1CCOC1); 408 nm (in CCCCCC); 408 nm (in Cc1ccccc1); 408 nm (in ClC(Cl)Cl); 408 nm (in ClCCl).
`CCCSc1ccc2n1[B-](F)(F)[N+]1=C(SC#N)C=CC1=C2c1ccccc1`: the absorption maximum was 538 nm (in CC#N); 555 nm (in CCCCCC); 549 nm (in CCOC(C)=O); 544 nm (in CO); 552 nm (in ClCCl).
`c1ccc(-n2c(-c3ccc(-n4c5ccccc5c5ccccc54)cc3)nc3nccnc32)cc1` showed an absorption maximum (in CC#N) of 339 nm.
